Results: patent publication US8871765B2, “Substituted 4-(4-fluoro-3-(piperazine-1-carbonyl)benzyl)phthalazin-1(2H)-one derivatives as poly (ADP-ribose) polymerase-1 inhibitors” (Cadila Healthcare Limited, priority 2010, dated 2014)

Key:
MCF-7 cell line = experiment: Potentiation of cell killing activity of Methyl Methane Sulphonate (MMS) in MCF-7 cells, MTT assay; assay type: cell-based; settings: compound at 100 nM, cell survival without/with alkylating agent MMS
Method: Potentiation of cell killing activity of Methyl Methane Sulphonate (MMS) by selected compounds according to present invention was evaluated in MCF-7 cell line obtained from National Centre for Cell Science, Pune, by using MTT assay according to general protocol described in Methods in Molecular Biology, Volume-43, In vitro Toxicity Testing Protocol, Chapter-6, page: 137-149. Compounds were tested for PARP 1 activity based on percent cell survival of MCF-7 cells with alkylating agent MMS.

PARP-1 = target: T1, PARP-1 (Homo sapiens, UniProt P09874); experiment: PARP-1 inhibitory activity, HT universal colorimetric PARP assay kit (Trevigen); assay type: biochemical; settings: HT universal colorimetric PARP assay kit; read-out: PARP-1 activity in vitro IC50 nM)
T1 construct: purchased Trevigen
T1 sequence (P09874 whole entry): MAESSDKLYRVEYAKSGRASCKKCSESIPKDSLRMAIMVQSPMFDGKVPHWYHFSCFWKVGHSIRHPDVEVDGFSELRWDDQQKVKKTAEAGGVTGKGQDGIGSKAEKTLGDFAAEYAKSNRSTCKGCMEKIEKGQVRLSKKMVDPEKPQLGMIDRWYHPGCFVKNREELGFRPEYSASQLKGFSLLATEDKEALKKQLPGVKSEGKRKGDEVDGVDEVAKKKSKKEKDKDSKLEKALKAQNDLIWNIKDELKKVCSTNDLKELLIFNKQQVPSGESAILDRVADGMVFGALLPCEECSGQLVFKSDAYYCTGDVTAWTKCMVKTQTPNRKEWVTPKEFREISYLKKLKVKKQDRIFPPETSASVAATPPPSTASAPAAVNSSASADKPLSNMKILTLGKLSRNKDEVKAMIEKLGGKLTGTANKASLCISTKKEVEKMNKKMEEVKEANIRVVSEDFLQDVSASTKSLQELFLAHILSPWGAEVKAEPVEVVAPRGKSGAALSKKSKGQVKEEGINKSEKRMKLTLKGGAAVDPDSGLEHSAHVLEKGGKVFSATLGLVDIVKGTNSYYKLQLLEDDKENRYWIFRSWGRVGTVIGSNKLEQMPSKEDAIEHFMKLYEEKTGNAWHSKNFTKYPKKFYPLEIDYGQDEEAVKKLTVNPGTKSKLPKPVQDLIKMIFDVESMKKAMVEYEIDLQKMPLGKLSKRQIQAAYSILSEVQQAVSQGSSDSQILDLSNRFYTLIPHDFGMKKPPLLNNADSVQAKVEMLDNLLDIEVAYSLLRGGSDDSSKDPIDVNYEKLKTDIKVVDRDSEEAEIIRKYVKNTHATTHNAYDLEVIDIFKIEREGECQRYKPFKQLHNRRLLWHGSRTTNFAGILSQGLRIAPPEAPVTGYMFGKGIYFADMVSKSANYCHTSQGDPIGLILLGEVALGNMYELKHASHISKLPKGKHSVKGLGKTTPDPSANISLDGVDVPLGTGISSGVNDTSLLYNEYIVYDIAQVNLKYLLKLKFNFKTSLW
Method: The compounds were tested for PARP-1 inhibitory activity by using HT universal colorimetric PARP assay kit obtained from Trevigen, following manufacturer's protocol.

Structure (SMILES): CC(C)(Nc1ccc(F)cc1)C(=O)N1CCN(C(=O)c2cc(Cc3n[nH]c(=O)c4ccccc34)ccc2F)CC1 [Example 34, 4-(4-fluoro-3-(4-(2-((4-fluorophenyl)amino)-2-methylpropanoyl)piperazine-1-carbonyl)-benzyl)phthalazin-1(2H)-one]
- Survival affected by drug [(−MMS/+MMS)] at 100 nM (MCF-7 cell line): 2.85
- IC50 (PARP-1): 6.68 nM

Structure (SMILES): CC(C)(Nc1ccccc1)C(=O)N1CCN(C(=O)c2cc(Cc3n[nH]c(=O)c4ccccc34)ccc2F)CC1 [Example 35, 4-(4-fluoro-3-(4-(2-methyl-2-(phenylamino)-propanoyl)piperazine-1-carbonyl)benzyl)phthalazin-1(2H)-one]
- Survival affected by drug [(−MMS/+MMS)] at 100 nM (MCF-7 cell line): 3.33
- IC50 (PARP-1): 3.56 nM

Structure (SMILES): COc1cccc(SC(C)(C)C(=O)N2CCN(C(=O)c3cc(Cc4n[nH]c(=O)c5ccccc45)ccc3F)CC2)c1 [Example 28, 4-(4-fluoro-3-(4-(2-((3-methoxyphenyl)thio)-2-methylpropanoyl)piperazine-1-carbonyl)benzyl)phthalazin-1(2H)-one]
- Survival affected by drug [(−MMS/+MMS)] at 100 nM (MCF-7 cell line): 2.08
- IC50 (PARP-1): 7.08 nM

Structure (SMILES): CC(C)(Oc1ccc(Br)cc1Cl)C(=O)N1CCN(C(=O)c2cc(Cc3n[nH]c(=O)c4ccccc34)ccc2F)CC1 [Example 20, 4-(3-(4-(2-(4-bromo-2-chlorophenoxy)-2-methylpropanoyl)piperazine-1-carbonyl)-4-fluorobenzyl)phthalazin-1(2H)-one]
- Survival affected by drug [(−MMS/+MMS)] at 100 nM (MCF-7 cell line): 2.15
- IC50 (PARP-1): 14.3 nM

Structure (SMILES): O=C(c1cc(Cc2n[nH]c(=O)c3ccccc23)ccc1F)N1CCN(C(=O)C2CC2)CC1 [AZD, reference compound]
- Survival affected by drug [(−MMS/+MMS)] at 100 nM (MCF-7 cell line): 2.19

Structure (SMILES): Cc1cc(OC(C)(C)C(=O)N2CCN(C(=O)c3cc(Cc4n[nH]c(=O)c5ccccc45)ccc3F)CC2)cc(C)c1Br [Example 37, 4-(3-(4-(2-(4-bromo-3,5-dimethylphenoxy)-2-methylpropanoyl)piperazine-1-carbonyl)-4-fluorobenzyl)phthalazin-1(2H)-one]
- Survival affected by drug [(−MMS/+MMS)] at 100 nM (MCF-7 cell line): 1.61
- IC50 (PARP-1): 16.5 nM

Structure (SMILES): CC(C)(Sc1cccc(F)c1)C(=O)N1CCN(C(=O)c2cc(Cc3n[nH]c(=O)c4ccccc34)ccc2F)CC1 [Example 32, 4-(4-fluoro-3-(4-(2-((3-fluorophenyl)thio)-2-methylpropanoyl)piperazine-1-carbonyl)benzyl)phthalazin-1(2H)-one]
- Survival affected by drug [(−MMS/+MMS)] at 100 nM (MCF-7 cell line): 2.08
- IC50 (PARP-1): 5.7 nM

Structure (SMILES): CC(C)(C(=O)N1CCN(C(=O)c2cc(Cc3n[nH]c(=O)c4ccccc34)ccc2F)CC1)[S+]([O-])c1ccc(F)cc1 (stereo not shown) [Example 25, 4-(4-fluoro-3-(4-(2-((4-fluorophenyl)sulfinyl)-2-methylpropanoyl)piperazine-1-carbonyl)benzyl)phthalazin-1(2H)-one]
- Survival affected by drug [(−MMS/+MMS)] at 100 nM (MCF-7 cell line): 2.15
- IC50 (PARP-1): 5.94 nM

Structure (SMILES): CC(C)(C(=O)N1CCN(C(=O)c2cc(Cc3n[nH]c(=O)c4ccccc34)ccc2F)CC1)[S+]([O-])c1ccc(Cl)cc1Cl (stereo not shown) [Example 39, 4-(3-(4-(2-(2,4-dichlorophenylsulfinyl)-2-methylpropanoyl)piperazine-1-carbonyl)-4-fluorobenzyl)phthalazin-1(2H)-one]
- Survival affected by drug [(−MMS/+MMS)] at 100 nM (MCF-7 cell line): 2.29
- IC50 (PARP-1): 9.47 nM

Structure (SMILES): CC(C)(Sc1ccc(Cl)c(Cl)c1)C(=O)N1CCN(C(=O)c2cc(Cc3n[nH]c(=O)c4ccccc34)ccc2F)CC1 [Example 30, 4-(3-(4-(2-((3,4-dichlorophenyl)thio)-2-methylpropanoyl)piperazine-1-carbonyl)-4-fluorobenzyl)phthalazin-1(2H)-one]
- Survival affected by drug [(−MMS/+MMS)] at 100 nM (MCF-7 cell line): 2.22
- IC50 (PARP-1): 9.38 nM

Structure (SMILES): CC(C)(C(=O)N1CCN(C(=O)c2cc(Cc3n[nH]c(=O)c4ccccc34)ccc2F)CC1)S(=O)(=O)c1ccccc1 [Example 23, 4-(4-fluoro-3-(4-(2-methyl-2-(phenylsulfonyl)propanoyl)piperazine-1-carbonyl)benzyl)phthalazin-1(2H)-one]
- Survival affected by drug [(−MMS/+MMS)] at 100 nM (MCF-7 cell line): 2.11
- IC50 (PARP-1): 4.23 nM

Structure (SMILES): CC(C)(SC1CCCC1)C(=O)N1CCN(C(=O)c2cc(Cc3n[nH]c(=O)c4ccccc34)ccc2F)CC1 [Example 36, 4-(3-(4-(2-(cyclopentylthio)-2-methylpropanoyl)piperazine-1-carbonyl)-4-fluorobenzyl)phthalazin-1(2H)-one]
- Survival affected by drug [(−MMS/+MMS)] at 100 nM (MCF-7 cell line): 2.59
- IC50 (PARP-1): 5.17 nM

Structure (SMILES): CC(C)(Oc1ccc(F)cc1F)C(=O)N1CCN(C(=O)c2cc(Cc3n[nH]c(=O)c4ccccc34)ccc2F)CC1 [Example 26, 4-(3-(4-(2-(2,4-difluorophenoxy)-2-methylpropanoyl)piperazine-1-carbonyl)-4-fluorobenzyl)phthalazin-1(2H)-one]
- Survival affected by drug [(−MMS/+MMS)] at 100 nM (MCF-7 cell line): 2.59
- IC50 (PARP-1): 6.43 nM

Structure (SMILES): CC(C)(Sc1ccc(Br)cc1)C(=O)N1CCN(C(=O)c2cc(Cc3n[nH]c(=O)c4ccccc34)ccc2F)CC1 [Example 47, 4-(3-(4-(2-((4-bromophenyl)thio)-2-methylpropanoyl)piperazine-1-carbonyl)-4-fluorobenzyl)phthalazin-1(2H)-one]
- Survival affected by drug [(−MMS/+MMS)] at 100 nM (MCF-7 cell line): 2.12
- IC50 (PARP-1): 9.16 nM

Structure (SMILES): COc1ccc(OC(C)(C)C(=O)N2CCN(C(=O)c3cc(Cc4n[nH]c(=O)c5ccccc45)ccc3F)CC2)cc1 [Example 3, 4-(4-fluoro-3-(4-(2-methyl-2-(4-methoxyphenoxy)propanoyl)piperazine-1-carbonyl)benzyl)phthalazin-1(2H)-one]
- Survival affected by drug [(−MMS/+MMS)] at 100 nM (MCF-7 cell line): 2.07
- IC50 (PARP-1): 11 nM

Structure (SMILES): CC(C)(Sc1ccc(F)cc1)C(=O)N1CCN(C(=O)c2cc(Cc3n[nH]c(=O)c4ccccc34)ccc2F)CC1 [Example 22, 4-(4-fluoro-3-(4-(2-((4-fluorophenyl)thio)-2-methylpropanoyl)piperazine-1-carbonyl)benzyl)phthalazin-1(2H)-one]
- Survival affected by drug [(−MMS/+MMS)] at 100 nM (MCF-7 cell line): 2.1
- IC50 (PARP-1): 5.3 nM

Structure (SMILES): CC(C)(Sc1cc(Cl)ccc1Cl)C(=O)N1CCN(C(=O)c2cc(Cc3n[nH]c(=O)c4ccccc34)ccc2F)CC1 [Example 33, 4-(3-(4-(2-((2,5-dichlorophenyl)thio)-2-methylpropanoyl)piperazine-1-carbonyl)-4-fluorobenzyl)phthalazin-1(2H)-one]
- Survival affected by drug [(−MMS/+MMS)] at 100 nM (MCF-7 cell line): 1.98
- IC50 (PARP-1): 7.9 nM

Structure (SMILES): CC(C)(Oc1ccccn1)C(=O)N1CCN(C(=O)c2cc(Cc3n[nH]c(=O)c4ccccc34)ccc2F)CC1 [Example 17, 4-(4-fluoro-3-(4-(2-methyl-2-(pyridin-2-yloxy)propanoyl)piperazine-1-carbonyl)benzyl)phthalazin-1(2H)-one]
- Survival affected by drug [(−MMS/+MMS)] at 100 nM (MCF-7 cell line): 1.93
- IC50 (PARP-1): 13.9 nM

Structure (SMILES): CC(C)(C(=O)N1CCN(C(=O)c2cc(Cc3n[nH]c(=O)c4ccccc34)ccc2F)CC1)S(=O)(=O)c1ccc(F)cc1 [Example 24, 4-(4-fluoro-3-(4-(2-((4-fluorophenyl)sulfonyl)-2-methylpropanoyl)piperazine-1-carbonyl)benzyl)phthalazin-1(2H)-one]
- Survival affected by drug [(−MMS/+MMS)] at 100 nM (MCF-7 cell line): 2.28
- IC50 (PARP-1): 4.66 nM

Structure (SMILES): CC(C)(Sc1ccc(F)cc1F)C(=O)N1CCN(C(=O)c2cc(Cc3n[nH]c(=O)c4ccccc34)ccc2F)CC1 [Example 27, 4-(3-(4-(2-((2,4-difluorophenyl)thio)-2-methylpropanoyl)piperazine-1-carbonyl)-4-fluorobenzyl)phthalazin-1(2H)-one]
- Survival affected by drug [(−MMS/+MMS)] at 100 nM (MCF-7 cell line): 2.49
- IC50 (PARP-1): 5.17 nM

Structure (SMILES): CC(C)(Oc1cccc(C(F)(F)F)c1)C(=O)N1CCN(C(=O)c2cc(Cc3n[nH]c(=O)c4ccccc34)ccc2F)CC1 [Example 21, 4-(4-fluoro-3-(4-(2-methyl-2-(3-(trifluoromethyl)phenoxy)propanoyl)piperazine-1-carbonyl)benzyl)phthalazin-1(2H)-one]
- Survival affected by drug [(−MMS/+MMS)] at 100 nM (MCF-7 cell line): 1.62
- IC50 (PARP-1): 12 nM

Structure (SMILES): CC(C)(Sc1ccccc1)C(=O)N1CCN(C(=O)c2cc(Cc3n[nH]c(=O)c4ccccc34)ccc2F)CC1 [Example 46, 4-(4-fluoro-3-(4-(2-methyl-2-(phenylthio)propanoyl)piperazine-1-carbonyl)benzyl)phthalazin-1(2H)-one]
- Survival affected by drug [(−MMS/+MMS)] at 100 nM (MCF-7 cell line): 2.28
- IC50 (PARP-1): 10.6 nM

Structure (SMILES): CC(C)(Sc1ccc(Cl)cc1Cl)C(=O)N1CCN(C(=O)c2cc(Cc3n[nH]c(=O)c4ccccc34)ccc2F)CC1 [Example 31, 4-(3-(4-(2-((2,4-dichlorophenyl)thio)-2-methylpropanoyl)piperazine-1-carbonyl)-4-fluorobenzyl)phthalazin-1(2H)-one]
- Survival affected by drug [(−MMS/+MMS)] at 100 nM (MCF-7 cell line): 1.94
- IC50 (PARP-1): 3.05 nM

Structure (SMILES): CC(C)(Sc1ccccc1Br)C(=O)N1CCN(C(=O)c2cc(Cc3n[nH]c(=O)c4ccccc34)ccc2F)CC1 [Example 29, 4-(3-(4-(2-((2-bromophenyl)thio)-2-methylpropanoyl)piperazine-1-carbonyl)-4-fluorobenzyl)phthalazin-1(2H)-one]
- Survival affected by drug [(−MMS/+MMS)] at 100 nM (MCF-7 cell line): 2.22
- IC50 (PARP-1): 8.6 nM

Structure (SMILES): CC(C)(Oc1ccccc1[N+](=O)[O-])C(=O)N1CCN(C(=O)c2cc(Cc3n[nH]c(=O)c4ccccc34)ccc2F)CC1 [Example 19, 4-(4-fluoro-3-(4-(2-methyl-2-(2-nitrophenoxy)propanoyl)piperazine-1-carbonyl)benzyl)phthalazin-1(2H)-one]
- Survival affected by drug [(−MMS/+MMS)] at 100 nM (MCF-7 cell line): 2.19
- IC50 (PARP-1): 12.4 nM
